Values of other authors as cited in patent US11938224B1, “Benzonatate modified release solid tablets and capsules” (Tris Pharma, Inc., priority 2016, dated 2024).

Settings: room temperature, oily liquid

CCCCNc1ccc(C(=O)OCCOCCOCCOCCOCCOCCOCCOCCOCCOC)cc1 [Benzonatate, 2-[2-[2-[2-[2-[2-[2-[2-(2-methoxyethoxy)ethoxy]ethoxy]ethoxy]ethoxy]ethoxy]ethoxy]ethoxy] ethyl-4-butylaminobenzoate]
solubility in water: water soluble
